*: point of attachment. FITC = O=C1OC2(c3ccc(O)cc3Oc3cc(O)ccc32)c2ccc(NC(=S)*)cc21; AEEA = NCCOCCOCC(=O)O
Experiments:
U2OS cells = assay: Viability assay (crystal violet), U2OS; type: cell-based; details: 72 h treatment
Protocol: U2OS, HCT116 and MDA-MB-231 cells were purchased from the ATCC and grown in Dulbecco modified Eagle's medium (DMEM; EuroClone, Milan, Italy; ECM0728L) supplemented with 10% Fetal Bovine Serum (FBS, ThermoFisher Scientific/Gibco, Waltham, MA, USA; 10270-106), 2 mM L-glutamine and antibiotics in a humidified incubator at 37°C with 5% CO2 and atmospheric O2 concentration. Cell lines were authenticated and tested to be mycoplasma-free.
U2OS, HCT116, and MDA-MB-231 cells were seeded in 24-well plates at a density of 1 × 10^4, 20 × 10^3 and 12 × 10^3 for each well, respectively. After 24 h, cells were treated with the indicated peptides and incubated at 37°C for additional 72 h. Upon treatment completion, cell medium was removed, the wells were washed twice in phosphate-buffered saline (PBS) and fixed with 4% formaldehyde for 15 min at room temperature (RT). After washing, 500 μl of crystal violet staining solution (Sigma-Aldrich, St. Louis, MO, USA) was added to each well and incubated for 30 min at RT. Finally, the plates were rinsed twice with water, air-dried and cell pellets were dissolved in 400 μl of a 10% aqueous solution of acetic acid. In total, 200 μl of each sample was transferred to a 96-well plate, and the optical density was measured at 570 nm (OD570) with an ELISA reader (Thermo Scientific, Waltham, MA, USA). The average absorbance in each condition was used to calculate the viability expressed as a percentage of treated vs untreated conditions (CTR).

γH2AX in U2OS cells = assay: Immunofluorescence of γH2AX (DNA damage); type: cell-based; details: 10 μM peptide, 24 h
Protocol: To evaluate telomere-localized DNA damage, FISH assay with a telomeric probe was combined to IF staining of γH2AX. Cells were seeded on glass coverslips in a 6-well plate at a density of 1 × 10^5 cells/well. After 24 h of treatment with indicated peptides, cells were washed three times with PBS 1×, fixed with formaldehyde 4% in PBS for 2 min at RT and washed three times with PBS 1×. The fixation protocol was repeated twice and then the samples were dehydrated by sequential exposure to 70%, 90% and 100% EtOH and DNA was denatured by incubation at 80°C for 3 min in the presence of the telomere probe solution (10 mM of Tris pH 7.2, MgCl2 buffer, 70% of deionized formamide, […] of TelC-Cy3 telomeric probe (Panagene, Daejeon, Korea), 0.25% of blocking reagent). […] For quantitative analysis of γH2AX positive cells, at least 200 cells/condition were scored in triplicate. For Telomere-Induced Foci (TIFs) analysis, at least 25 γH2AX-positive cells on a single plane were scored. […] Fluorescence signals were recorded with Zeiss Laser Scanning Microscope 510 Meta (63× magnification) (Zeiss, Germany) and the experiment was analyzed with Adobe Photoshop CC 2019.

HER2 = assay: Real-time RT-PCR of HER2 expression; type: cell-based; details: U2OS, 10 μM peptide, 8, 16 and 24 h
Protocol: (§1) U2OS cells were seeded on glass coverslips in a 6-well plate at a density of 2 × 10^5 cells/well and treated with the peptides for 8, 16, and 24 h. Total RNA was isolated from the cell lines using WizPrep™ Total RNA Mini Kit (Cell). The quality and the quantity of RNA extraction was assessed by evaluating the A280/A260 nm and A260/A230 nm absorbance ratio (Nanodrop 1000, Thermo Fisher Scientific). The mRNA Reverse Transcription (RT) was performed using the QuantiTect Reverse Transcription Kit (Qiagen). mRNA expression was evaluated by SYBR Green (Applied Biosystems) in the QuantStudio 6 Flex Detection system (ThermoFisher Scientific). Primer sequences are indicated in Supplementary Table S2.

BCL-2 = assay: Real-time RT-PCR of BCL-2 expression; type: cell-based; details: U2OS, 10 μM peptide, 8, 16 and 24 h
Protocol: as §1

G4 = assay: CD experiments, G4-stabilizing properties of R7W conjugate versus parent; type: binding; details: CD experiments (Supplementary Figure S39)
Source text: The buffer baseline was subtracted from each spectrum.

FITC-MybA400 = biological target: T1, FITC-MybA400 (UniProt P11938 397-415, G400A); assay: MST; 20 mM K+; 5 mM KH2PO4/K2HPO4 pH 7.0, 20 mM KCl (LiCl for c-MYC stock), 25 C; MST with 0.1% Tween and 5% DMSO, 20 nM FITC-peptide; details: tags: N-terminal FITC; parallel G4
T1 chain: {FITC-AEEA}-NHTANSIRHRFRVYLSKRL-NH2

FITC-Myb397-415 = biological target: T2, FITC-Myb397-415 (UniProt P11938 397-415); assay: microscale thermophoresis; 5 mM KH2PO4/K2HPO4, 20 mM KCl (c-MYC stock annealed in LiCl), pH 7.0; MST 25 C with 0.1% Tween, 5% DMSO, 20 nM labelled peptide, DNA titrated (stocks from 10 or 20 uM, mixed 1:1); ITC 25 C; details: tags: N-terminal FITC-O2Oc; C-terminal NH2; parallel G4
T2 chain: {FITC-AEEA}-NHTGNSIRHRFRVYLSKRL-NH2

MybA412 = biological target: T3, MybA412 (Saccharomyces cerevisiae, UniProt P11938 397-415, S412A); assay: isothermal titration calorimetry; 5 mM KH2PO4/K2HPO4, 20 mM KCl (c-MYC stock annealed in LiCl), pH 7.0; MST 25 C with 0.1% Tween, 5% DMSO, 20 nM labelled peptide, DNA titrated (stocks from 10 or 20 uM, mixed 1:1); ITC 25 C; details: tags: N-acetyl; C-terminal NH2; chain copies: 2; parallel G4
T3 chain: NHTGNSIRHRFRVYLAKRL

MybA400 = biological target: T4, MybA400 (UniProt P11938 397-415, G400A); assay: as above; details: tags: N-acetyl; C-terminal NH2; chain copies: 2; parallel G4
T4 chain: NHTANSIRHRFRVYLSKRL

Myb397-415 = biological target: T5, Myb397-415 (UniProt P11938 397-415); assay: as above; details: tags: N-acetyl; C-terminal NH2; chain copies: 2; parallel G4
T5 chain: NHTGNSIRHRFRVYLSKRL

Q: With “RRRRRRRW-GG-NHTANSIRHRFRVYLSKRL [R7W-Myb^A400, Myb^A400 N-terminally conjugated to the cell-penetrating peptide R7W via a glycine–glycine spacer]” as the molecule, how does the “Inhibition of tumour cell growth, R7W-conjugated peptides” value (U2OS cells) read?
A: essentially to the same extent as R7W-Myb^397–415

Q: And the “Accumulation of phosphorylated histone H2AX (γH2AX)” value (γH2AX in U2OS cells)?
A: most pronounced response

Q: With “RRRRRRRW-GG-NHTGNSIRHRFRVYLSKRL [R7W-Myb^397–415]” as the molecule, how does the IC50 (U2OS cells; read-out: IC50 (concentration of drug capable of killing 50% of cells)) read?
A: ~5 µM

Q: And the HER2 expression level (HER2)?
A: transiently modulated

Q: What about the BCL-2 expression level (BCL-2) of the same molecule?
A: transiently modulated

Q: And the “G4-stabilizing properties compared with Myb^397–415” value (G4)?
A: no significant differences

B1: c-KIT2 (structured_DNA)
DNA: CGGGCGGGCGCTAGGGAGGGT
Q: B1 was tested. Which Kd (FITC-MybA400) did it give?
A: ~170 nM

Q: And the Kd (FITC-Myb397-415)?
A: 130 ± 15 nM

Q: And the Kd (MybA412)?
A: 187 ± 28 nM

Q: What about the Kd (MybA400) of the same molecule?
A: 137 ± 24 nM

Q: What about the Kd (Myb397-415) of the same molecule?
A: 200 ± 12 nM
